The supplement of paper PMC10331698
± gives the standard deviation of the averaged measurements.

Assays:
Experiment in all cases: level (log10 ratio to DMSO vehicle control); higher = higher biomarker level / cell amount than vehicle control
[1] = compound: C=C(C)C(=O)OCCC(F)(F)C(F)(F)C(F)(F)C(F)(F)C(F)(F)C(F)(F)C(F)(F)C(F)(F)F [8:2 Fluorotelomer methacrylate] (in DMSO)
Procedure: (§1)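 BioMAP Diversity Plus panel of 12 human primary cell co-culture systems (3C, 4H, LPS, SAg, BT, BF4T, BE3C, CASM3C, HDF3CGF, KF3CT, MyoF, Mphg). Compounds were added 1 h before stimulation and left for 24 h (MyoF 48 h; BT 72 h for soluble read-outs or 6 d for IgG). Biomarkers were read by ELISA, cytotoxicity by SRB, PBMC viability and proliferation by Alamar Blue. Each well value was divided by the mean of 8 DMSO control wells on the same plate and log10 transformed; duplicate blinded samples were tested at 4 concentrations.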

Perfluorononanoic acid = compound: O=C(O)C(F)(F)C(F)(F)C(F)(F)C(F)(F)C(F)(F)C(F)(F)C(F)(F)C(F)(F)F [Perfluorononanoic acid] (in DMSO)
Procedure: as §1

[2] = compound: O=C(O)C(F)(F)OC(F)(F)C(F)(F)OC(F)(F)C(F)(F)OC(F)(F)C(F)(F)C(F)(F)C(F)(F)F [Perfluoro-3,6,9-trioxatridecanoic acid] (in DMSO); conditions: 6700 nM
Procedure: as §1

[3] = compound: O=C(O)C(F)(OC(F)(F)C(F)(F)C(F)(F)F)C(F)(F)F [Ammonium perfluoro-2-methyl-3-oxahexanoate] (in Water)
Procedure: as §1

[4] = compound: O=C(O)C(F)(OC(F)(F)C(F)(OC(F)(F)C(F)(OC(F)(F)C(F)(F)C(F)(F)F)C(F)(F)F)C(F)(F)F)C(F)(F)F [Perfluoro-(2,5,8-trimethyl-3,6,9-trioxadodecanoic)acid] (in DMSO)
Procedure: as §1

[5] = compound: O=C(O)CCC(F)(C(F)(F)F)C(F)(F)F [4,4-bis(Trifluoromethyl)-4-fluoropropanoic acid] (in DMSO)
Procedure: as §1

[6] = compound: OCC(F)(F)C(F)(F)C(F)(F)C(F)F [1H,1H,5H-Perfluoropentanol] (in DMSO)
Procedure: as §1

[7] = compound: OCC(F)(F)OC(F)(F)C(F)(F)OC(F)(F)C(F)(F)OC(F)(F)CO [1H,1H,11H,11H-Perfluorotetraethylene glycol] (in DMSO)
Procedure: as §1

Row | Test System | level (log10) ([1]; 6700 nM) | level (log10) ([1]; 20000 nM) | level (log10) (Perfluorononanoic acid; 6700 nM) | level (log10) (Perfluorononanoic acid; 20000 nM) | level (log10) [2] | level (log10) ([3]; 6700 nM) | level (log10) ([3]; 20000 nM) | level (log10) ([3]; 60000 nM) | level (log10) ([4]; 1100 nM) | level (log10) ([4]; 3300 nM) | level (log10) ([4]; 10000 nM) | level (log10) ([5]; 6700 nM) | level (log10) ([5]; 20000 nM) | level (log10) ([5]; 60000 nM) | level (log10) ([6]; 6700 nM) | level (log10) ([6]; 20000 nM) | level (log10) ([6]; 60000 nM) | level (log10) ([7]; 6700 nM) | level (log10) ([7]; 20000 nM) | level (log10) ([7]; 60000 nM)
1 | HDF3CGF:Collagen I | -0.0255 ± 0.029 | -0.001 ± 0.083 | 0.0345 ± 0.005 | -0.0715 ± 0.036 | -0.0565 ± 0.061 | -0.029 ± 0.031 | 0.0015 ± 0.005 | -0.0095 ± 0.0092 | 0.027 ± 0.0028 | -0.014 ± 0.051 | 0.0475 ± 0.013 | -0.0105 ± 0.025 | -0.0025 ± 0.028 | 0.0195 ± 0.026 | -0.0375 ± 0.039 | -0.0305 ± 0.037 | 0.0585 ± 0.021 | -0.021 ± 0.065 | -0.0405 ± 0.053 | -0.116 ± 0.0057
2 | CASM3C:CD106/VCAM-1 | -0.006 ± 0.0014 | -0.0145 ± 0.036 | 0.013 ± 0.0042 | -0.0245 ± 0.1 | -0.035 ± 0.024 | -0.0955 ± 0.061 | -0.0645 ± 0.005 | -0.083 ± 0.011 | 0.0125 ± 0.012 | -0.003 ± 0.031 | -0.0025 ± 0.005 | -0.0265 ± 0.049 | -0.0185 ± 0.056 | -0.033 ± 0.0099 | 0.0335 ± 0.023 | 0.027 ± 0.065 | 0.0395 ± 0.013 | 0.025 ± 0.011 | 0.017 ± 0.011 | 0.032 ± 0.0085
3 | HDF3CGF:CD106/VCAM-1 | -0.0105 ± 0.013 | -0.052 ± 0.064 | -0.02 ± 0.034 | -0.0225 ± 0.022 | -0.479 ± 0.037 | -0.039 ± 0.021 | -0.044 ± 0.027 | -0.131 ± 0.016 | 0.001 ± 0.017 | -0.03 ± 0.021 | -0.0385 ± 0.07 | -0.0525 ± 0.069 | -0.0555 ± 0.12 | -0.0835 ± 0.12 | -0.0535 ± 0.015 | 0.023 ± 0.048 | 0.0145 ± 0.043 | -0.09 ± 0.0042 | -0.202 | -0.264 ± 0.044
4 | KF3CT:CXCL8/IL-8 | -0.013 ± 0.0071 | -0.0275 ± 0.015 | -0.0045 ± 0.016 | 0.013 ± 0.028 | -0.047 ± 0.0042 | 0.0175 ± 0.036 | 0.0135 ± 0.00071 | 0.0165 ± 0.0092 | -0.004 ± 0.0099 | -0.01 ± 0.035 | 0.0175 ± 0.056 | -0.023 ± 0.0028 | -0.0105 ± 0.00071 | -0.0115 ± 0.013 | 0.0155 ± 0.016 | 0.0205 ± 0.021 | 0.0415 ± 0.049 | -0.0085 ± 0.022 | -0.0255 ± 0.021 | -0.0125 ± 0.011
5 | HDF3CGF:EGFR | -0.048 ± 0.071 | 0.0215 ± 0.091 | 0.0115 ± 0.057 | -0.037 ± 0.013 | -0.101 ± 0.023 | -0.017 ± 0.014 | 0.0145 ± 0.026 | 0.0535 ± 0.005 | -0.0365 ± 0.15 | -0.113 ± 0.16 | 0.025 ± 0.04 | -0.05 ± 0.028 | -0.0445 ± 0.04 | -0.013 ± 0.033 | -0.0465 ± 0.033 | -0.0025 ± 0.028 | 0.022 ± 0.054 | -0.008 ± 0.0085 | -0.0005 ± 0.025 | 0.013 ± 0.021
6 | CASM3C:CD141/Thrombomodulin | -0.0195 ± 0.042 | 0.041 ± 0.082 | 0.0145 ± 0.0092 | 0.0335 ± 0.016 | -0.0345 ± 0.0064 | 0.113 ± 0.0057 | 0.0435 ± 0.11 | 0.035 ± 0.038 | 0.0045 ± 0.036 | 0.018 ± 0.047 | 0.014 ± 0.027 | -0.0525 ± 0.069 | -0.032 ± 0.041 | 0.0035 ± 0.019 | 0.046 | 0.018 ± 0.017 | 0.032 ± 0.023 | -0.0135 ± 0.015 | -0.009 ± 0.0085 | 0.035 ± 0.0042
7 | KF3CT:PAI-I | -0.022 ± 0.037 | -0.015 ± 0.013 | 0.065 ± 0.011 | -0.0095 ± 0.032 | -0.126 | -0.0455 ± 0.012 | -0.0695 ± 0.0078 | -0.054 ± 0.02 | -0.0025 ± 0.0035 | -0.018 ± 0.0071 | 0.006 ± 0.0099 | -0.0035 ± 0.00071 | -0.0165 ± 0.0092 | 0.003 ± 0.0071 | 0.0105 ± 0.098 | 0.062 ± 0.035 | -0.0045 ± 0.011 | -0.003 ± 0.02 | -0.0115 ± 0.0064 | -0.033 ± 0.0042
